Consider 14 compounds from patent US20250084036A1, “COMPOUND, ALDEHYDE DEHYDROGENASE 2 ACTIVATOR, PHARMACEUTICAL COMPOSITION, AND THERAPEUTIC AND/OR PROPHYLACTIC DRUG” (Alchemedicine, Inc., priority 2022, published 2025).

Data set [1] in a line: Test Example 2: Metabolic stability with mouse hepatic microsomes. Also: tested at 0.99 µM. The data set is classed as in vitro ADME. Particulars: after 30 minutes, 37° C., NADPH. The procedure:
Metabolic stability in mouse hepatic microsomes was evaluated with the following method.
• (1) Mouse hepatic microsomes: 20 mg/mL • (2) Test compound: 1.1 mM DMSO solution • (3) Potassium phosphate buffer solution: 66.7 mM (pH 7.4) • (4) NADPH solution: 10 mM in potassium phosphate buffer solution • (5) Quenching solution: 0.5% formic acid-acetonitrile solution with warfarin as internal standard substance
Into a propylene tube, 971.5 μL of the potassium phosphate buffer solution and 27.5 μL of the mouse hepatic microsomes were put, and suspended. Thereto, 1 μL of a test compound was added, and 180 μL was taken from this mixture and transferred into another tube. The mixture was preincubated at 37° C. for 5 minutes, and 20 μL of the NADPH solution (for the case with an incubation time of 30 minutes) or 20 μL of the potassium phosphate buffer solution (for the case with an incubation time of 0 minutes) was then added thereto. After incubation, 200 μL of the quenching solution was added to terminate the reaction. Subsequently, centrifugation was performed at 3220×g for 20 minutes, and the concentration of the unchanged form of the test compound in 200 μL of the supernatant was measured with LC-MS/MS. On the basis of the peak area obtained for the unchanged form, the residual rate (%) of the unchanged form was calculated as that for the case with an incubation time of 0 minutes was assumed as 100%.

Data set [2] in a line: Test Example 3: Metabolic stability with human hepatic microsomes. The class given is in vitro ADME. As to conditions: human hepatic microsomes 0.1 mg protein/mL, 0.1 μmol/L test compound, after 30 minutes, 37° C. As for the experimental part:
For the compounds of Examples 1 to 9, which had been confirmed to have stability in the mouse hepatic microsome test, metabolic stability with human hepatic microsomes was measured. The specific method is as follows. • (1) Fifty microliter-portions were taken from 0.2 μmol/L test compound diluted with β-NADPH solution. • (2) Fifty microliters of 0.2 mg protein/mL human hepatic microsome solution was added to each (except for a sample with a reaction time of 0 minutes). • (3) Incubation was performed with shaking at 37° C. for 30 minutes (concentration in reaction sample: 0.1 μmol/L test compound, 0.1 mg protein/mL human hepatic microsome) • (4) After incubation, 400 μL of methanol was added to terminate the reaction. • (5) To the sample with a reaction time of 0 minutes, 50 μL of 0.2 mg protein/mL hepatic microsome solution was added. • (6) Each of the samples from (4) and (5) was left to stand at −20° C. for 30 minutes or longer, and then centrifuged at 4° C. and 3,000 rpm for approximately 10 minutes. • (7) The supernatant was subjected to measurement with LC/MS/MS, and, on the basis of the peak area obtained for the unchanged form, the residual rate (%) of the unchanged form was calculated as that for the case with an incubation time of 0 minutes was assumed as 100%.

In data set [3] the target is T1, human recombinant ALDH2 enzyme (Homo sapiens, UniProt P05091).
T1 construct: purchased Abcam ab87415
T1 sequence (P05091 18-517): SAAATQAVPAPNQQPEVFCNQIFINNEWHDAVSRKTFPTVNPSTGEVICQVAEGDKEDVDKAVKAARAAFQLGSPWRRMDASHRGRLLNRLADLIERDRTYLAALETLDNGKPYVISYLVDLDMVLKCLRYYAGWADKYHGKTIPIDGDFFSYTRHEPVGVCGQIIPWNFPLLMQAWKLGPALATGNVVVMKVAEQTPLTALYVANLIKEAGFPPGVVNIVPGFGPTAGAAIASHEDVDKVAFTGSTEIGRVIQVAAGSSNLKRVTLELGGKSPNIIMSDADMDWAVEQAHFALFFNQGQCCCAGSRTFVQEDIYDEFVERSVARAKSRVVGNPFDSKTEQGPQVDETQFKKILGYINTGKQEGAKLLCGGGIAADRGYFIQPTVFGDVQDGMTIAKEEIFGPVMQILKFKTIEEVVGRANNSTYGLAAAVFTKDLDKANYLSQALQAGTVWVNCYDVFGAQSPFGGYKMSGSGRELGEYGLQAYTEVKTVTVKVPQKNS
Nature of the data set: Test Example 1-2: ALDH2 activation effect (acetaldehyde oxidation rate, PicoProbe kit). As to conditions: ALDH2 1 μg/mL, 60 min measurement. The class given is biochemical. The procedure:
(§1) The activation effect of each test compound on the acetaldehyde oxidation rate of ALDH2 was measured with the following method. A test was conducted by using a commercially available PicoProbe™ Aldehyde dehydrogenase Activity Assay Kit (manufactured by Abcam) with reference to an instruction attached to the product under the following conditions. To each well of a 384-well plate, the following (1) to (3) were sequentially added with a pipette: • (1) 10 μL of solution obtained by dissolving and diluting a human recombinant ALDH2 enzyme (manufactured by Abcam, product number: ab87415) with ALDH assay Buffer (final concentration: 1 μg/mL); • (2) 10 μL of 30 μM or 90 μM test compound solution (with 3% DMSO) prepared by using ALDH assay Buffer; and • (3) 10 μL of Reaction mix composed with ratio of 7.3 μL of ALDH assay Buffer, 0.6 μL of PicoProbe, 0.6 μL of Substrate Mix, and 1.5 μL of Acetaldehyde.
Before addition of (3), incubation was performed at room temperature for 5 minutes. After addition of (3), fluorescence intensity was measured at room temperature every 2.5 minutes over a period of 60 minutes by using an EnVision (manufactured by PerkinElmer Inc.) to determine the oxidation rate. Wavelengths of 535 nm and 587 nm were used for fluorescence intensities of excitation and emission, respectively.

In data set [4] the target is T1, human recombinant ALDH2 enzyme. Description: Test Example 1-1: ALDH2 activation effect (acetaldehyde oxidation rate, PicoProbe kit). The class given is biochemical. Particulars: ALDH2 2 μg/mL, 180 min measurement. The procedure: as §1, with “by BioVision Inc.)” for “by Abcam)”, “concentration: 2” for “concentration: 1”, “of […]” for “of 7.3”, “PicoProbe, 0.3” for “PicoProbe, 0.6”
Before addition of (3), incubation was performed at room temperature for 5 minutes. After addition of (3), fluorescence intensity was measured at room temperature every 2.5 minutes over a period of 180 minutes by using an EnSight (manufactured by PerkinElmer Inc.) to determine the oxidation rate. Wavelengths of 535 nm and 587 nm were used for fluorescence intensities of excitation and emission, respectively.

On to `CCOc1ncc(CNC(=O)c2cc(-c3ncccc3CO)ccc2F)cc1F` [Example 7, N-((6-Ethoxy-5-fluoropyridin-3-yl)methyl)-2-fluoro-5-(3-(hydroxymethyl)pyridin-2-yl)benzamide], for which the “Residual rate (%) of unchanged form” value in data set [1] is recorded as 96%; in data set [2], 89%. Also, the figures for the “acetaldehyde oxidation rate (no test compound = 100%)” value in data set [3] (test compound 10 μM) and in data set [3] (test compound 30 μM) were 331% and 415%, respectively.

As for `COc1ncc(CNC(=O)c2cc(-c3ncccc3[C@@H](C)O)ccc2F)cc1F` (single isomer, unassigned) [Example 5, 2-fluoro-N-((5-fluoro-6-methoxypyridin-3-yl)methyl)-5-(3-(1-hydroxyethyl)pyridin-2-yl)benzamide], the entries for the “Residual rate (%) of unchanged form” value in data set [1] and in data set [2] were 95% and 92%, respectively. Moreover, the “acetaldehyde oxidation rate (no test compound = 100%)” value in data set [3] (test compound 10 μM) is 122%; in data set [3] (test compound 30 μM), 170%.

In the case of `O=C(NCc1ccc2c(c1)OCO2)c1c(Cl)cccc1Cl` [Comparative Example 1, reference compound], the “Residual rate (%) of unchanged form” value in data set [1] was less than 1%. Moreover, the “acetaldehyde oxidation rate (no test compound = 100%)” value in data set [4] (test compound 10 μM) was found to be 199%; in data set [4] (test compound 30 μM), 225%; in data set [3] (test compound 10 μM) it was 220%; in data set [3] (test compound 30 μM), 275%.

Turning to `COCc1ccc(CNC(=O)c2cc(-c3ncccc3CO)ccc2F)cn1` [Example 1, 2-Fluoro-5-(3-(hydroxymethyl)pyridin-2-yl)-N-((6-(methoxymethyl)pyridin-3-yl)methyl)benzamide], the “Residual rate (%) of unchanged form” value amounted to 91% in data set [1] and 96% in data set [2]. Also, the entries for the “acetaldehyde oxidation rate (no test compound = 100%)” value in data set [4] (test compound 10 μM) and in data set [4] (test compound 30 μM) were 123% and 130%, respectively.

In the case of `COc1ccc(CNC(=O)c2cc(-c3ncccc3CO)ccc2F)cn1` [Example 2, 2-Fluoro-5-(3-(hydroxymethyl)pyridin-2-yl)-N-((6-methoxypyridin-3-yl)methyl)benzamide], the “Residual rate (%) of unchanged form” value is 89% in data set [1] and more than 99% in data set [2]. For the same compound, the “acetaldehyde oxidation rate (no test compound = 100%)” value in data set [4] (test compound 10 μM) turned out to be 150%; in data set [4] (test compound 30 μM) it was 180%.

For the compound `O=C(NCc1cnc(OC2CC2)c(F)c1)c1cc(-c2ncccc2CO)ccc1F` [Example 9, N-((6-Cyclopropoxy-5-fluoropyridin-3-yl)methyl)-2-fluoro-5-(3-(hydroxymethyl)pyridin-2-yl)benzamide], the “Residual rate (%) of unchanged form” value in data set [1] was found to be 92%; in data set [2], 93%. The “acetaldehyde oxidation rate (no test compound = 100%)” value in data set [3] (test compound 10 μM) came to 182%; in data set [3] (test compound 30 μM), 283%.

With `COCc1ccc(CNC(=O)c2c(F)cccc2Cl)cc1F` [Comparative Example 5, reference compound], in data set [1], the “Residual rate (%) of unchanged form” value is listed as less than 1%.

For the compound `COCc1ccc(CNC(=O)c2c(Cl)cccc2Br)cc1F` [Comparative Example 4, reference compound], the “Residual rate (%) of unchanged form” value in data set [1] is reported as less than 1%.

For `COCc1ccc(CNC(=O)c2c(Cl)cccc2Cl)cc1F` [Comparative Example 3, reference compound], the “Residual rate (%) of unchanged form” value in data set [1] worked out at 1%.

With `O=C(NCc1ccc(OC(F)F)nc1)c1cc(-c2ncccc2CO)ccc1F` [Example 6, N-((6-(Difluoromethoxy)pyridin-3-yl)methyl)-2-fluoro-5-(3-(hydroxymethyl)pyridin-2-yl)benzamide], the “Residual rate (%) of unchanged form” value in data set [1] is more than 99%; in data set [2], 47%. For the same compound, the “acetaldehyde oxidation rate (no test compound = 100%)” value in data set [3] (test compound 10 μM) is on record as 125%; in data set [3] (test compound 30 μM), 139%.

As to `COCc1ccc(CNC(=O)c2c(F)cccc2F)cc1F` [Comparative Example 6, reference compound], in data set [1], the “Residual rate (%) of unchanged form” value is 1%.

For `COc1ccc(CNC(=O)c2cc(-c3ncccc3CO)ccc2OCC2CC2)cc1F` [Comparative Example 2, reference compound], the “Residual rate (%) of unchanged form” value in data set [1] is given as 6%.

In the case of `COc1ncc(CNC(=O)c2cc(-c3ncccc3[C@@H](C)O)ccc2F)cc1F` (single isomer, unassigned) [Example 4, 2-fluoro-N-((5-fluoro-6-methoxypyridin-3-yl)methyl)-5-(3-(1-hydroxyethyl)pyridin-2-yl)benzamide], the “Residual rate (%) of unchanged form” value in data set [1] is given as 93%; in data set [2], more than 99%. Further, the “acetaldehyde oxidation rate (no test compound = 100%)” value in data set [3] (test compound 10 μM) is 133%; in data set [3] (test compound 30 μM), 155%.

`CC(C)Oc1ncc(CNC(=O)c2cc(-c3ncccc3CO)ccc2F)cc1F` [Example 8, 2-Fluoro-N-((5-fluoro-6-isopropoxypyridin-3-yl)methyl)-5-(3-(hydroxymethyl)pyridin-2-yl)benzamide]: the “Residual rate (%) of unchanged form” value is recorded as 90% in data set [1] and more than 99% in data set [2]. Moreover, the “acetaldehyde oxidation rate (no test compound = 100%)” value in data set [3] (test compound 10 μM) was 154%; in data set [3] (test compound 30 μM), 224%.
